The record followed here is patent US20260184707A1, “PHARMACEUTICAL COMPOUNDS FOR THE TREATMENT OF COMPLEMENT MEDIATED DISORDERS” (ALEXION PHARMACEUTICALS, INC., priority 2022, published 2026).

The experiment has as its target T1, Human complement C1s enzyme (Homo sapiens, UniProt P09871).
T1 construct: purified from human serum, Complement Technology, Inc; purchased Complement Technology, Inc; host or cells: human serum (plasma-derived native protein)
T1 sequence (P09871 438-688 limits assumed): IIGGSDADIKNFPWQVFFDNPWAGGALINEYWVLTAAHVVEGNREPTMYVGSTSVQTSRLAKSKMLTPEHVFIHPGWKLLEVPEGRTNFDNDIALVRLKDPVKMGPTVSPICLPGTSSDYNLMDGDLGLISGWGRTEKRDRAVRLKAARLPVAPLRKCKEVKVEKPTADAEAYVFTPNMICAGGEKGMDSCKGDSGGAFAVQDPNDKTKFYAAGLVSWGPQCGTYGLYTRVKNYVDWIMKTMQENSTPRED
T1 sequence (P09871 16-437 partner limits assumed): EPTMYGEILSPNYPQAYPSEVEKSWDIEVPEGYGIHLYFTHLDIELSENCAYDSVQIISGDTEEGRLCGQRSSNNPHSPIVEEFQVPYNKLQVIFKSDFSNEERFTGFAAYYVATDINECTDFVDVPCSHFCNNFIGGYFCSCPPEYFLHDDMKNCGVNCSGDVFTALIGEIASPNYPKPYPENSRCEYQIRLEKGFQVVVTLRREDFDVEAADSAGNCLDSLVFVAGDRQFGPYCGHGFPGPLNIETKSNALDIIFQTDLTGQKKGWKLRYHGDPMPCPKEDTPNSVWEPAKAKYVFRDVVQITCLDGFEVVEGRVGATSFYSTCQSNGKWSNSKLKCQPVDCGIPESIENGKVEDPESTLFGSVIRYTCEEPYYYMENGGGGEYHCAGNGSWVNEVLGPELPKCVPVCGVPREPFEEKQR
Kind of experiment: Human C1s enzyme assay. The experiment is classed as biochemical. The note with it: human complement C1s enzyme 1.16 nM, substrate Z-L-Lys-SBzl, A405; read-out: IC50 (Stars). A digest of the protocol:
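Thioesterase activity followed colorimetrically (DTNB, A405, 30-s reads) using 100 μM Z-L-Lys-SBzl substrate. Enzyme, human serum-derived C1s at 1.16 nM final, was incubated with test compound for 5 min, room temperature, pH 7.5 Tris buffer with 1 M NaCl. Rate-versus-concentration data fitted by nonlinear regression for IC50.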

On to `O=C(Cn1c(-c2ccccc2)ncc(NC(=O)c2ccc(-n3cccc3)cc2)c1=O)NCc1cc2cnccc2[nH]1` [Compound 59, N-(1-(2-(((1H-pyrrolo[3,2-c]pyridin-2-yl)methyl)amino)-2-oxoethyl)-6-oxo-2-phenyl-1,6-dihydropyrimidin-5-yl)-4-(1H-pyrrol-1-yl)benzamide], for which the IC50 (commonly the midpoint of a concentration-inhibition curve) was less than 100 nM. Turning to `O=C(Cn1cncc(NC(=O)c2cnc(-c3ccccc3)o2)c1=O)NCc1cc2cnccc2[nH]1` [Compound 405, N-(1-(2-(((1H-pyrrolo[3,2-c]pyridin-2-yl)methyl)amino)-2-oxoethyl)-6-oxo-1,6-dihydro-pyrimidin-5-yl)-2-phenyl-oxazole-5-carboxamide], the IC50 is less than 100 nM.

On to `C[C@H](NC(=O)Cn1c(-c2ccccc2)ncc(NCCCc2ccccc2)c1=O)c1cc2cnccc2[nH]1` [Compound 9, (S)—N-(1-(1H-pyrrolo[3,2-c]pyridin-2-yl)ethyl)-2-(6-oxo-2-phenyl-5-((3-phenylpropyl)amino)pyrimidin-1(6H)-yl)acetamide], for which the IC50 was more than 1000 nM. Take `O=C(Cn1c(-c2ccccc2)ncc(NC(=O)c2ccc(Oc3ccccc3)cc2)c1=O)NCc1cc2cnccc2[nH]1` [Compound 8, N-(1-(2-(((1H-pyrrolo[3,2-c]pyridin-2-yl)methyl)amino)-2-oxoethyl)-6-oxo-2-phenyl-1,6-dihydropyrimidin-5-yl)-4-phenoxybenzamide]: the IC50 was less than 100 nM. Turning to `C[C@H](Nc1cnc(-c2ccc(O[C@@H]3CO[C@H]4[C@@H]3OC[C@H]4O)cc2)n(CC(=O)NCc2cc3cnccc3[nH]2)c1=O)c1ccc2oc3ccccc3c2c1` [Compound 288, N-((1H-pyrrolo[3,2-c]pyridin-2-yl)methyl)-2-(5-(((S)-1-(dibenzo[b,d]furan-2-yl)ethyl)-amino)-2-(4-(((3R,3aR,6R, 6aR)-6-hydroxyhexahydrofuro [3,2-b]furan-3-yl)oxy)phenyl)-6-oxopyrimidin-1(6H)-yl)acet-amide], the IC50 was less than 100 nM. Next, `C[C@@H](Nc1cnc(N2CCOCC2)n(CC(=O)NCc2cc3cnccc3[nH]2)c1=O)c1coc(-c2ccccc2)n1` [Compound 461, (R)—N-((1H-Pyrrolo[3,2-c]pyridine-2-yl)methyl)-2-(2-morpholino-6-oxo-5-((1-(2-phenyloxazol-4-yl)ethyl)amino)pyrimidin-1(6H)-yl)acetamide]: less than 100 nM.

Take `CC(C)c1cnc(N[C@H](C)c2ccc3oc4ccccc4c3c2)c(=O)n1CC(=O)NCc1cc2cnccc2[nH]1` [Compound 442, (R)-N-((1H-pyrrolo[3,2-c]pyridin-2-yl)methyl)-2-(3-((1-(dibenzo[b,d]furan-2-yl)ethyl)-amino)-6-isopropyl-2-oxopyr-azin-1(2H)-yl)acetamide]: the IC50 was less than 100 nM. Next, `O=C(Cn1c(-c2ccccc2)ncc(NCCCc2ccccc2)c1=O)NCc1cc2cnccc2[nH]1` [Compound 1, N-((1H-pyrrolo[3,2-c]pyridin-2-yl)methyl)-2-(6-oxo-2-phen-yl-5-((3-phenylpropyl)amino)-pyrimidin-1(6H)-yl)acetamide]: less than 100 nM; `C[C@H](C(=O)NCc1cc2cnccc2[nH]1)n1c(-c2ccccc2F)ncc(N[C@H](C)c2ccc3oc4ccccc4c3c2)c1=O` (single isomer, unassigned) [Compound 364, (R*)—N-((1H-pyrrolo[3,2-c]pyridine-2-yl)methyl)-2-(5-(((R)-1-(dibenzo[b,d]furan-2-yl)ethyl)amino)-2-(2-fluorophenyl)-6-oxopyrimidin-1(6H)-yl)propenamide]: more than 1000 nM; `O=C(Cn1c(-c2cccc(F)c2)ncc(NCc2ccc3oc4ccccc4c3c2)c1=O)NCc1cc2cnccc2[nH]1` [Compound 117, N-((1H-pyrrolo[3,2-c]pyridin-2-yl)methyl)-2-(5-((dibenzo [b,d]furan-2-ylmethyl)amino)-2-(3-fluorophenyl)-6-oxopyr-imidin-1(6H)-yl)acetamide]: less than 100 nM. Regarding `O=C(Cn1c(-c2ccccc2)ncc(NC(=O)c2ccc(Oc3ccc(C(F)(F)F)cc3)cc2)c1=O)NCc1cc2cnccc2[nH]1` [Compound 50, N-(1-(2-(((1H-pyrrolo[3,2-c]pyridin-2-yl)methyl)amino)-2-oxoethyl)-6-oxo-2-phenyl-1,6-dihydropyrimidin-5-yl)-4-(4-(trifluoromethyl)phenoxy)-benzamide], the half-inhibitory concentration (IC50) is less than 100 nM.

For `CCOP(=O)(COc1ccc(-c2ncc(NCCCc3ccccc3)c(=O)n2CC(=O)NCc2cc3cnccc3[nH]2)cc1)OCC` [Compound 89, diethyl ((4-(1-(2-(((1H-pyrrolo[3,2-c]pyridine-2-yl)methyl)amino)-2-oxoethyl)-6-oxo-5-((3-phenylpropyl)amino)-1,6-dihydropyrimidin-2-yl)phenoxy)methyl)phosphonate], the IC50 is less than 100 nM.

Regarding `O=C(Cn1c(N2CC(F)(F)C2)ncc(NCc2ccc3oc4ccccc4c3c2)c1=O)NCc1cc2cnccc2[nH]1` [Compound 281, N-((1H-pyrrolo[3,2-c]pyridin-2-yl)methyl)-2-(5-((dibenzo [b,d]furan-2-ylmethyl)amino)-2-(3,3-difluoroazetidin-1-yl)-6-oxopyrimidin-1(6H)-yl)acet-amide], the IC50 was less than 100 nM. Next, `O=C(Cn1c(-c2ccccc2)ncc(NC(=O)c2cnc(-c3ccccc3)[nH]2)c1=O)NCc1cc2cnccc2[nH]1` [Compound 168, N-(1-(2-(((1H-pyrrolo[3,2-c]pyridin-2-yl)methyl)amino)-2-oxoethyl)-6-oxo-2-phenyl-1,6-dihydropyrimidin-5-yl)-2-phenyl-1H-imidazole-5-carbox-amide]: less than 100 nM; `CP(=O)(O)c1ccc(CCCNc2cnc(-c3ccccc3)n(CC(=O)NCc3cc4cnccc4[nH]3)c2=O)cc1` [Compound 91, (4-(3-((1-(2-(((1H-pyrrolo[3,2-c]pyridine-2-yl)methyl)amino)-2-oxoethyl)-6-oxo-2-phenyl-1,6-dihydropyrimidin-5-yl)amino)propyl)phenyl)(methyl)phosphinic acid]: less than 100 nM; `Cc1cccc(-c2ncc(NCCCc3ccccc3)c(=O)n2CC(=O)NCc2cc3cnccc3[nH]2)c1F` [Compound 435, N-((1H-pyrrolo[3,2-c]pyridin-2-yl)methyl)-2-(2-(2-fluoro-3-methylphenyl)-6-oxo-5-((3-phenylpropyl)amino)pyrimi-din-1(6H)-yl)acetamide]: less than 100 nM. Regarding `C[C@@H](Nc1cnc(N2CCCC(F)C2)n(CC(=O)NCc2cc3cnccc3[nH]2)c1=O)c1ccc2oc3ccccc3c2c1` (stereo partly drawn) [Compound 398, N-((1H-pyrrolo[3,2-c]pyridin-2-yl)methyl)-2-(5-(((R)-1-(dibenzo[b,d]furan-2-yl)ethyl)-amino)-2-(3-fluoropiperidin-1-yl)-6-oxopyrimidin-1(6H)-yl)-acetamide], the half-maximal inhibitory concentration (IC50) is less than 100 nM. Next, `O=C(Cn1c(N2CCCCC2)cnc(N[C@H](CF)c2ccc3oc4ccccc4c3c2)c1=O)NCc1cc2cnccc2[nH]1` [Compound 494, (S)-N-((1H-pyrrolo[3,2-c]pyridin-2-yl)methyl)-2-(3-((1-(dibenzo[b,d]furan-2-yl)-2-fluoroethyl)amino)-2-oxo-6-(piperidin-1-yl)pyrazin-1(2H)-yl)acetamide]: more than 1000 nM; `O=C(Cn1c(-c2ccccc2)ncc(NC(=O)c2noc(-c3ccccc3)n2)c1=O)NCc1cc2cnccc2[nH]1` [Compound 219, N-(1-(2-(((1H-pyrrolo[3,2-c]pyridine-2-yl)methyl)amino)-2-oxoethyl)-6-oxo-2-phenyl-1,6-dihydropyrimidin-5-yl)-5-phenyl-1,2,4-oxadiazole-3-carboxamide]: less than 100 nM. `CO[C@@H]1CO[C@H]2[C@@H]1OC[C@H]2OCCCNc1cnc(-c2ccccc2)n(CC(=O)NCc2cc3cnccc3[nH]2)c1=O` [Compound 95, N-((1H-pyrrolo[3,2-c]pyridine-2-yl)methyl)-2-(5-((3-(((3R,3aR,6R,6aR)-6-methoxyhexahydrofuro[3,2-b]furan-3-yl)oxy)propyl)amino)-6-oxo-2-phenylpyrimidin-1(6H)-yl)acetamide]: the half-inhibitory concentration (IC50) was less than 100 nM. Turning to `O=C(Cn1c(-c2ccccc2)ncc(NCCCC(=O)c2ccc(Oc3ccccc3)cc2)c1=O)NCc1cc2cnccc2[nH]1` [Compound 88, N-((1H-pyrrolo[3,2-c]pyridin-2-yl)methyl)-2-(6-oxo-5-((4-oxo-4-(4-phenoxyphenyl)but-yl)amino)-2-phenylpyrimidin-1(6H)-yl)acetamide], the IC50 is less than 100 nM. Next, `C[C@H](Nc1cnc(C2CCCC2)n(CC(=O)NCc2cc3cnccc3[nH]2)c1=O)c1ccc2oc3ccccc3c2c1` [Compound 277, (S)-N-((1H-pyrrolo[3,2-c]pyr-idin-2-yl)methyl)-2-(2-cyclo-pentyl-5-((1-(dibenzo[b,d]furan-2-yl)ethyl)amino)-6-oxo-pyrimidin-1(6H)-yl)acetamide]: less than 100 nM.
